Some results are limits rather than exact numbers.

The target of assay [1] is T1, Mcl-1 (Homo sapiens, UniProt Q07820). As to the kind of experiment: direct fluorescence anisotropy binding. Background: Fluorescence polarisation rises when a labelled molecule tumbles more slowly, as on binding a larger partner.
The target in assay [2] is T2, Bcl-w (Homo sapiens, UniProt Q92843).
T2 sequence (Q92843 1-164 limits assumed): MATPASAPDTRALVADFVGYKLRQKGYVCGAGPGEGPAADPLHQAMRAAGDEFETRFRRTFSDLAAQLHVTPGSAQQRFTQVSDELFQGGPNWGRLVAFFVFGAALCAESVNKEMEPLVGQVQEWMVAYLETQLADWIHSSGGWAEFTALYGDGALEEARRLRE
The assay can be described thus: direct fluorescence anisotropy binding.

Assay [3] has as its target T3, Bfl-1 (Homo sapiens, UniProt Q16548).
T3 sequence (Q16548 1-151 limits assumed): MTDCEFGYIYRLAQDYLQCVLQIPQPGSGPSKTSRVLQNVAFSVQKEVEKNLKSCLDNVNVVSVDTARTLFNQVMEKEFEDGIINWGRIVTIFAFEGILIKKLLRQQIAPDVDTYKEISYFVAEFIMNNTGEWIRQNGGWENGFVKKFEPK
As to the kind of experiment: direct fluorescence anisotropy binding.

In assay [4] the target is Bcl-xL (Homo sapiens, UniProt Q07817). The assay can be described thus: direct fluorescence anisotropy binding.
In assay [5] the target is Bcl-2 (Homo sapiens, UniProt P10415). As to the kind of experiment: direct fluorescence anisotropy binding.
The target of another assay is T4, KSBcl-2 (Human herpesvirus 8 type P, UniProt F5HGJ3).
T4 sequence (F5HGJ3 1-150): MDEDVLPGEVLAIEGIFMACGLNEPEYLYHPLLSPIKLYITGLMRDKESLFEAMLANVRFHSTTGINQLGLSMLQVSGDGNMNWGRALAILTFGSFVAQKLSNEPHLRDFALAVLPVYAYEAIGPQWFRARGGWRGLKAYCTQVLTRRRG
As to the kind of experiment: direct fluorescence anisotropy binding. More on the design: species or system Kaposi sarcoma herpesvirus.

In assay [6] the target is T1, Mcl-1. The assay can be described thus: competition fluorescence anisotropy vs fluoresceinated Bim. The note with it: biochemical competition binding experiments; four other human Bcl-2 paralogs.
In assay [7] the test system is Bcl-xL. Conditions: NoxaA BH3 peptide from murine Noxa; cited from earlier work.
The test system of assay [8] is Bcl-2. Conditions: NoxaA BH3 peptide from murine Noxa; cited from earlier work.
Assay [9] concerns Bfl-1. Conditions: NoxaA BH3 peptide from murine Noxa; cited from earlier work.
Assay [10] relates to Bcl-w. The note with it: NoxaA BH3 peptide from murine Noxa; cited from earlier work.

T1 sequence (Q07820 172-327 limits assumed): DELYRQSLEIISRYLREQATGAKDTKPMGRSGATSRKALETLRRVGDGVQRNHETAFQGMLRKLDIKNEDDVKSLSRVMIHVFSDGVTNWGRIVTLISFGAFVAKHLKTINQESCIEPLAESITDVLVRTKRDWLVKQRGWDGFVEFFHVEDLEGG
Bcl-2 (Homo sapiens, UniProt P10415), sequence (P10415 1-217 limits assumed): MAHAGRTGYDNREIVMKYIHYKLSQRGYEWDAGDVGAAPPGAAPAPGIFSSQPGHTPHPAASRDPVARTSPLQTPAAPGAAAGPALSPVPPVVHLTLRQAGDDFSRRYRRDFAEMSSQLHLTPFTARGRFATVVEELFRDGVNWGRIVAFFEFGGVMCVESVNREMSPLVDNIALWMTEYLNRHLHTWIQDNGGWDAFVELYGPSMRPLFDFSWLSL
Bcl-xL (Homo sapiens, UniProt Q07817), sequence (Q07817 1-209 limits assumed): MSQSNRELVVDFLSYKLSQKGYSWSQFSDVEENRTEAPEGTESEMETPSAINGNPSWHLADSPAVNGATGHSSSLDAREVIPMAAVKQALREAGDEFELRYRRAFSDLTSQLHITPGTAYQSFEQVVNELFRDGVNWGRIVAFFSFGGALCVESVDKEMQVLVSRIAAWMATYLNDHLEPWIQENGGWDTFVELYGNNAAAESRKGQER

Usually Kd stands for a measure of binding affinity in units of concentration. `CC[C@H](C)[C@H](NC(=O)[C@H](CCCNC(=N)N)NC(=O)[C@H](CCCNC(=N)N)NC(=O)[C@H](CC(C)C)NC(=O)[C@H](CCC(=O)O)NC(=O)[C@H](CCC(N)=O)NC(=O)[C@@H](NC(=O)[C@@H](NC(=O)[C@H](Cc1c[nH]c2ccccc12)NC(=O)[C@@H](NC(=O)[C@H](CCC(=O)O)NC(=O)[C@@H]1CCCN1C(=O)[C@@H](N)CCCNC(=N)N)[C@@H](C)CC)[C@@H](C)CC)[C@@H](C)O)C(=O)NCC(=O)N[C@@H](CC(=O)O)C(=O)N[C@@H](CCC(=O)O)C(=O)N[C@@H](Cc1ccccc1)C(=O)N[C@@H](CC(N)=O)C(=O)N[C@@H](C)C(=O)N[C@@H](Cc1ccc(O)cc1)C(=O)N[C@@H](Cc1ccc(O)cc1)C(=O)N[C@@H](C)C(=O)N[C@@H](CCCNC(=N)N)C(N)=O` [Bim_A2eT] had a Kd on Mcl-1 [1] of under 1 nM.
Turning to `CC[C@H](C)[C@H](NC(=O)[C@H](CCCNC(=N)N)NC(=O)[C@H](CCCNC(=N)N)NC(=O)[C@H](CC(C)C)NC(=O)[C@H](CCC(=O)O)NC(=O)[C@H](CCC(N)=O)NC(=O)[C@@H](NC(=O)[C@@H](NC(=O)[C@H](Cc1c[nH]c2ccccc12)NC(=O)[C@@H](NC(=O)[C@H](CCC(=O)O)NC(=O)[C@@H]1CCCN1C(=O)[C@@H](N)CCCNC(=N)N)[C@@H](C)CC)[C@@H](C)CC)[C@@H](C)O)C(=O)NCC(=O)N[C@@H](CC(=O)O)C(=O)N[C@@H](CCC(=O)O)C(=O)N[C@H](C(=O)N[C@@H](CC(N)=O)C(=O)N[C@@H](C)C(=O)N[C@@H](Cc1ccc(O)cc1)C(=O)N[C@@H](Cc1ccc(O)cc1)C(=O)N[C@@H](C)C(=O)N[C@@H](CCCNC(=N)N)C(N)=O)[C@@H](C)CC` [Bim_A2eT_F4aI], the Kd is 16 ± 4.1 nM at Bcl-w [2]; 7.9 ± 2.1 nM on Bfl-1 [3]; under 1 nM at Mcl-1 [1]; 110 ± 62 nM on Bcl-xL [4]; 150 ± 43 nM on Bcl-2 [5].
For `CC[C@H](C)[C@H](NC(=O)[C@H](CCCNC(=N)N)NC(=O)[C@H](CCCNC(=N)N)NC(=O)[C@H](CC(C)C)NC(=O)[C@H](CCC(=O)O)NC(=O)[C@H](CCC(N)=O)NC(=O)[C@@H](NC(=O)[C@H](CCSC)NC(=O)[C@H](Cc1c[nH]c2ccccc12)NC(=O)[C@@H](NC(=O)[C@H](CCC(=O)O)NC(=O)[C@@H]1CCCN1C(=O)[C@@H](N)CCCNC(=N)N)[C@@H](C)CC)[C@@H](C)O)C(=O)NCC(=O)N[C@@H](CC(=O)O)C(=O)N[C@@H](CCC(=O)O)C(=O)N[C@@H](Cc1ccccc1)C(=O)N[C@@H](CC(N)=O)C(=O)N[C@@H](C)C(=O)N[C@@H](Cc1ccc(O)cc1)C(=O)N[C@@H](Cc1ccc(O)cc1)C(=O)N[C@@H](C)C(=O)N[C@@H](CCCNC(=N)N)C(N)=O` [Bim_A2eT_I2dM], at Mcl-1 [1], the Kd was under 1 nM.
Molecule `CC[C@H](C)[C@H](NC(=O)[C@H](CCC(=O)O)NC(=O)[C@@H]1CCCN1C(=O)[C@@H](N)CCCNC(=N)N)C(=O)N[C@@H](Cc1c[nH]c2ccccc12)C(=O)N[C@H](C(=O)N[C@H](C(=O)N[C@@H](CCC(N)=O)C(=O)N[C@@H](CCC(=O)O)C(=O)N[C@@H](CC(C)C)C(=O)N[C@@H](CCCNC(=N)N)C(=O)N[C@@H](CCCNC(=N)N)C(=O)N[C@@H](CC(C)C)C(=O)NCC(=O)N[C@@H](CC(=O)O)C(=O)N[C@@H](CCC(=O)O)C(=O)N[C@@H](Cc1ccccc1)C(=O)N[C@@H](CC(N)=O)C(=O)N[C@@H](C)C(=O)N[C@@H](Cc1ccc(O)cc1)C(=O)N[C@@H](Cc1ccc(O)cc1)C(=O)N[C@@H](C)C(=O)N[C@@H](CCCNC(=N)N)C(N)=O)[C@@H](C)O)[C@@H](C)CC` [Bim_A2eT_I3dL] yielded a Kd at Mcl-1 [1] of under 1 nM.
`CC[C@H](C)[C@H](NC(=O)[C@H](CCC(=O)O)NC(=O)[C@H](CC(=O)O)NC(=O)CNC(=O)[C@H](CC(C)C)NC(=O)[C@H](CCCNC(=N)N)NC(=O)[C@H](CCCNC(=N)N)NC(=O)[C@H](CC(C)C)NC(=O)CNC(=O)[C@H](CCC(N)=O)NC(=O)[C@@H](NC(=O)[C@H](CCSC)NC(=O)[C@H](Cc1c[nH]c2ccccc12)NC(=O)[C@@H](NC(=O)[C@H](CCC(=O)O)NC(=O)[C@@H]1CCCN1C(=O)[C@H](CCCNC(=N)N)NC(C)=O)[C@@H](C)CC)[C@@H](C)O)C(=O)N[C@@H](CC(N)=O)C(=O)N[C@@H](C)C(=O)N[C@@H](Cc1ccc(O)cc1)C(=O)N[C@@H](Cc1ccc(O)cc1)C(=O)N[C@@H](C)C(=O)N[C@@H](CCCNC(=N)N)C(N)=O` [MS1] had a Kd on KSBcl-2 of 2.9 ± 0.68 nM. The “specificity for Mcl-1 over Bcl-xL, Bcl-2, Bcl-w and Bfl-1” value at Mcl-1 [6] is on record as at least 40 fold.
As for `CC[C@H](C)[C@H](NC(=O)[C@H](CCC(=O)O)NC(=O)[C@H](CC(=O)O)NC(=O)CNC(=O)[C@H](CC(C)C)NC(=O)[C@H](CCCNC(=N)N)NC(=O)[C@H](CCC(N)=O)NC(=O)[C@H](CC(C)C)NC(=O)[C@H](CO)NC(=O)[C@H](CCC(N)=O)NC(=O)[C@@H](NC(=O)[C@H](CC(C)C)NC(=O)[C@H](Cc1c[nH]c2ccccc12)NC(=O)[C@@H](NC(=O)[C@H](CCC(=O)O)NC(=O)[C@@H]1CCCN1C(=O)[C@H](CCCNC(=N)N)NC(C)=O)[C@@H](C)CC)[C@@H](C)O)C(=O)N[C@@H](CC(N)=O)C(=O)N[C@@H](C)C(=O)N[C@@H](Cc1ccc(O)cc1)C(=O)N[C@@H](Cc1ccc(O)cc1)C(=O)N[C@@H](C)C(=O)N[C@@H](CCCNC(=N)N)C(N)=O` [MS2], on KSBcl-2, the equilibrium dissociation constant (Kd) was under 1 nM.
In the case of `CC[C@H](C)[C@H](NC(=O)[C@H](CCC(=O)O)NC(=O)[C@H](CC(=O)O)NC(=O)CNC(=O)[C@H](CC(C)C)NC(=O)[C@H](CCCNC(=N)N)NC(=O)[C@H](CCC(N)=O)NC(=O)[C@H](CC(C)C)NC(=O)[C@H](Cc1c[nH]cn1)NC(=O)[C@H](CCC(N)=O)NC(=O)[C@@H](NC(=O)[C@H](CC(C)C)NC(=O)[C@H](Cc1c[nH]c2ccccc12)NC(=O)[C@@H](NC(=O)[C@H](CCC(=O)O)NC(=O)[C@@H]1CCCN1C(=O)[C@@H](N)CCCNC(=N)N)[C@@H](C)CC)[C@@H](C)O)C(=O)N[C@@H](CC(N)=O)C(=O)N[C@@H](C)C(=O)N[C@@H](Cc1ccc(O)cc1)C(=O)N[C@@H](Cc1ccc(O)cc1)C(=O)N[C@@H](C)C(=O)N[C@@H](CCCNC(=N)N)C(N)=O` [MS3], the figures for the Kd at Mcl-1 [1] and on Bcl-2 [5] were 2 ± 1.2 nM and over 3000 nM, respectively.
In the case of `CC[C@H](C)[C@H](NC(=O)[C@H](CCCCN)NC(=O)[C@H](CCCNC(=N)N)NC(=O)[C@H](CC(C)C)NC(=O)[C@H](CCC(N)=O)NC(=O)[C@H](C)NC(=O)[C@H](C)NC(=O)[C@H](Cc1ccccc1)NC(=O)[C@H](CCC(=O)O)NC(=O)[C@@H]1CCCN1C(=O)[C@@H]1CCCN1C(=O)[C@H](CC(C)C)NC(=O)[C@H](CCC(=O)O)NC(=O)[C@H](C)NC(C)=O)C(=O)NCC(=O)N[C@@H](CC(=O)O)C(=O)N[C@@H](CCCCN)C(=O)N[C@H](C(=O)N[C@@H](Cc1ccc(O)cc1)C(=O)N[C@@H](CS)C(N)=O)C(C)C` [NoxaA], the “no binding to Bcl-xL up to” value with Bcl-xL [7] was over 2500 nM. Moreover, the “no binding to Bcl-2 up to” value with Bcl-2 [8] is on record as over 2500 nM. Besides, the “no binding to Bfl-1 up to” value with Bfl-1 [9] is reported as over 2500 nM. Moreover, in the assay with Bcl-w [10], the “no binding to Bcl-w up to” value is recorded as over 2500 nM.

Source of the values: PMC4168798 (ACS Chemical Biology, 2014).
